How the values were obtained:
C10 cells = assay: In situ detection of S-nitrosylated proteins in intact cells (biotin derivatization, streptavidin-FITC, confocal microscopy); assay type: cell-based, mouse
Method: A line of spontaneously transformed mouse lung alveolar type II epithelial cells (C10) was used in some experiments, as described below. C10 cells were cultured in CMRL1066 medium containing 10% fetal bovine serum (FBS, GIBCO). In experiments involving microscopic analysis, the cells were grown on glass cover slips. At about one hour prior to exposure to a test agent, the medium was switched to phenol red free DMEM/F12 containing 0.5% FBS. Some cells were exposed to S-nitroso-glutathione (GSNO) or S-nitroso-N-acetyl penicillamine (SNAP) for about 1 hour, in the presence of an equimolar concentration of freshly prepared L-cysteine. To monitor S-nitrosylation in response to NOS2 activation, the cells were treated with 10 ng/ml TNF alpha (TNFα) and 100 U/ml interferon gamma (IFNγ), for about 24 hours. Incubation with L-N-monomethyl arginine (L-NMMA) for about 16 hours was used to inhibit endogenous NO production and D-NMMA (D-N-monomethyl arginine) was used as a control. Nuclear export was blocked by leptomycin B (5 ng/ml, exposure for about 12 hours). All experiments were performed in duplicate and were repeated at least three times.
To evaluate the localization of S-nitrosylated proteins in intact cells, the biotin derivatization method described above was used in combination with fluorophore labeling and visualized using confocal microscopy. Cells grown on cover slips were rinsed with PBS containing 0.1 mM EDTA and 0.01 mM neocuproine, and fixed in 4% PFA (paraformaldehyde) for 20 minutes at RT. The cells were permeabilized, and protein SH groups were blocked using HEN buffer containing 2.5% SDS, 0.5% CHAPS, and 20 mM MMTS (methylmethanethiosulfonate) for 20 min at 55° C. with constant shaking. After removal of MMTS, the cells were incubated with 1 mM sodium ascorbate and 0.4 mM biotin-HPDP (N-[6-(biotinamido)hexyl]-3′-(2′-pyridyldithio)propionamide) for about an hour at RT, and the cover slips were then incubated overnight with streptavidin-FITC at 4° C. Blocking was performed using 20 mM NEM for 30 minutes at 4° C., followed by incubation with 0.05 mM MPB and 1 mM sodium ascorbate for 1 hour at RT. The nuclei were stained with 10 microgram/ml PI (propidium iodide) for 30 minutes at RT. The cells were analyzed by confocal microscopy (magnification 40×) using an Olympus BX50 microscope coupled to a Bio-Rad (Hercules Calif.) MRC 1024 confocal scanning laser microscope system. Control experiments were also performed in which blocking of SH groups was omitted, or in which 100 micromolar HgCl2 was added prior to blocking of SH groups with MMTS or NEM. To assess the contribution of endogenous biotinylated proteins, the biotin-label was omitted in some control cover slips. All manipulations were performed in the dark. […]

RelA (p65) = RelA (p65) immunostaining, cytoplasmic versus nuclear localization; assay type: cell-based, mouse
Method: FIGS. 4G and 4H illustrates an assessment of the presence of cytoplasmic protein. C10 cells were mock-treated (sham) (FIG. 4G) or stimulated with TNF alpha for 30 minutes, and submitted to the biotinylation protocols similar to those described above with respect to FIG. 1. RelA (p65) was detected using specific antibodies (Santa Cruz).
FIGS. 6A and 6C illustrate cells that were incubated with leptomycin B (5 ng/ml) for about 12 hours, followed by biotin derivatization, incubation with streptavidin-FITC, and analysis by confocal microscopy. […] These findings thus support the notion that S-nitrosylation occurs in proteins that are regulated by nuclear trafficking.
To ensure that the cytoplasmic targets were still present after this procedure, the presence of RelA was evaluated in sham or TNF alpha-treated cells. RelA, a subunit of the transcription factor, nuclear factor kappa B, is normally present in the cytoplasm and is translocated into the nucleus upon exposure to TNF alpha. […] In fact, increased S-nitrosylation of cytoplasmic proteins was observed after induction of NOS2 activity.

IKKβ [1] = molecular target: T1, IKKβ (Homo sapiens, UniProt O14920); assay: Biotin derivatization (biotin switch) of IKKβ in Jurkat T cells; assay type: cell-based
T1 construct: IKKβ was immunopurified from TNFα-stimulated Jurkat T cells treated with SNO; endogenous in cells; host or cells: Jurkat T cells
T1 sequence (O14920 1-756): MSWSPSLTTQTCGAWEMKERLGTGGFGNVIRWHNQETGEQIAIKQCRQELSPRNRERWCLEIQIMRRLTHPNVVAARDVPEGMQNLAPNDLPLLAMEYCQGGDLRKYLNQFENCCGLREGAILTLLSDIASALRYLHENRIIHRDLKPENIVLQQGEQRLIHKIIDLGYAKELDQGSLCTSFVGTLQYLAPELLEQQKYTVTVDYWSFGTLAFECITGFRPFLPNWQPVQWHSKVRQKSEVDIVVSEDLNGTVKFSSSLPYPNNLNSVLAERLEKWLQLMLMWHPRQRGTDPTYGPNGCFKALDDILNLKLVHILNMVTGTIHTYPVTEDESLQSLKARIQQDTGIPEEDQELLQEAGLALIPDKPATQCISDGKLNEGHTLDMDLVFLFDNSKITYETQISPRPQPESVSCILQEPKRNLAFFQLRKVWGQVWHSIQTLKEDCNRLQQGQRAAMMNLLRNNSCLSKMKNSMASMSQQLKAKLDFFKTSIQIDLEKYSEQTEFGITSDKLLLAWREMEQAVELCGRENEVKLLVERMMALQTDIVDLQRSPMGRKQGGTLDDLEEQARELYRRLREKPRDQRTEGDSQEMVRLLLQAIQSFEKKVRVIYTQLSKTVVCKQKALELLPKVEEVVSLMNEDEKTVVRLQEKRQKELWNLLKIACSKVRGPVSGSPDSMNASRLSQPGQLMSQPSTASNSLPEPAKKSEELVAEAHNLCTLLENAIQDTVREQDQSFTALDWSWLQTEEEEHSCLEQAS
Method: The detection of S-nitrosylated proteins was performed via a biotin switch method as follows. Following treatments, the cells were rinsed 2 times with PBS containing 0.1 mM EDTA and 0.01 mM neocuproine and lysed in HEN buffer (25 mM HEPES, pH 7.7, 0.1 mM EDTA, 0.01 mM neocuproine) containing 0.5% CHAPS, 0.1% SDS and 20 mM N-ethylmaleimide (NEM) at 4° C. for 30 min in order to block free thiols. The lysates were cleared by centrifugation at 14,000 g, 4° C. for 10 min and excess NEM was removed by protein precipitation using cold acetone. The protein pellets were resuspended in HENS buffer (HEN 1% SDS), and the SNO bonds were decomposed by adding 20 mM sodium ascorbate. The resulting free thiols were reacted with 0.05 mM sulfhydryl-specific biotinylating agent, N-(3-malemidylpropionyl)biocytin (MPB, Molecular Probes) for 30 min at room temperature, resulting in biotinylation of SNO. […] Biotinylated IKKβ was detected on the membrane using horseradish peroxidase-linked streptavidin. […]
A biotin derivatization method was also used to assess whether the IKKβ subunit is directly targeted by S-nitrosylation. […] IKKβ was subsequently immunoprecipitated from the lysates and its biotinylation was assessed using streptavidin-HRP on a western blot. […]

IKKβ [2] = molecular target: T1, IKKβ; assay: SNO content of immunopurified IKKβ by chemiluminescence; assay type: cell-based; settings: Jurkat T cells exposed to L-CSNO and TNFα
Method: The total cellular SNO concentration (protein-bound plus free) was measured in lysates of cells treated with SNO in presence or absence of L-or D-cys. After 3 washes with PBS, the cells were lysed in the same buffer as was used for the biotin switch method. […] The amount of NO released from samples was estimated from a standard curve generated by injection of L-CSNO stock solutions. IKKβ was immunoprecipitated from Jurkat T cell lysates, using a monoclonal IKKβ antibody and protein G-agarose beads. After washing the immunoprecipitates 3 times with HEN buffer containing 50 mM NaCl to minimize co-associating proteins, the antigen-antibody complexes were removed from the beads by three 10 min incubations in 50 μl of 100 mM glycine pH 3.0 at 4° C. The eluates were treated with 0.6% sulfanilamide prior to the assessment of the SNO content via chemiluminescence, as described before. As a control, some lysates or immunoprecipitates were treated with 4.4 mM HgCl2 for 10 min at RT, followed by 20 min incubation at 4° C., and 10 min incubation with sulfanilamide at RT. To confirm that IKKβ was the predominant protein immunoprecipitated under these conditions, Laemmli sample buffer was added to the immunoprecipitate, samples were boiled, and evaluated on a silver-stained gel. All experiments were repeated at least two times and similar results were obtained. […]

wt HA-IKKβ = molecular target: T2, wt HA-IKKβ (Homo sapiens, UniProt O14920); assay: TNFα-stimulated kinase activity of transfected wt HA-IKKβ in C10 cells; assay type: cell-based; settings: TNFα-stimulated enzymatic activity
T2 construct: expressed in transfected cells; host or cells: C10 mouse lung epithelial cells; plasmid a gift of Dr. Michael Karin
T2 sequence (O14920 1-756): T1 sequence (O14920 1-756)
Method: The cells were exposed to test agents and at indicated times, transferred to ice, washed twice with cold PBS, and lysed in buffer containing 50 mM HEPES, 150 mM NaCl, 1 mM EDTA, 2 mM MgCl2, 10 mM Na3VO4, 1 mM phenylmethylsulfonyl fluoride, 0.1% Nonidet P-40, 10 μg/ml leupeptin, 1% aprotinin, 250 μM DTT and 100 μM NaF. The lysates were cleared by centrifugation at 14,000 rpm, 4° C. for 10 min. Protein concentrations were determined and the IKK complex was immunoprecipitated with an IKKγ antibody (Santa Cruz) at 4° C. for 1.5 h using protein G agarose beads. The precipitates were washed once with lysis buffer and twice with kinase buffer (20 mM HEPES, 20 mM β-glycerolphosphate, 1 mM MnCl2, 5 mM MgCl2, 2 mM NaF and 250 μM DTT). The kinase reaction was performed using 1 μg glutathione-S transferase (GST)-IκBα as a substrate, provided by Dr. Rosa Ten (Mayo Clinic, Rochester, Minn.), and 5 μCi γ^32P-adenosine triphosphate at 30° C. for 30 min. Kinase assays were performed in presence of 250 μM DTT, the minimal concentration necessary in order to maintain maximal TNFα-stimulated activity. The reactions were stopped by the addition of 2× Laemmli sample buffer. […] In separate experiments, the immunoprecipitated IKK complex or JNK1 from TNFα-stimulated cells was exposed to SNAP or GSNO for 15 min in lysis buffer in vitro prior to assessment of kinase activity. […]

OO [H2O2, hydrogen peroxide]
staining pattern (biotinylation) (C10 cells; 500 micromolar, 15 minutes): failed to alter

CC(=O)N[C@H](C(=O)O)C(C)(C)SN=O [SNAP, S-nitroso-N-acetyl penicillamine]
biotinylation (S-nitrosylated proteins) in intact cells (C10 cells; 1 mM, 1 hour): enhanced

TNF alpha
RelA presence in nucleus (RelA (p65); 30 minutes, dual staining with PI): enhanced nuclear presence | S-nitrosylation of IKKβ (biotinylation) (IKKβ [1]): decreased

N[C@@H](CSN=O)C(=O)O [L-CSNO]
SNO content of IKKβ (IKKβ [2]): marked increase | S-nitrosylation of IKKβ (biotinylation) (IKKβ [1]): increase | activity of wt HA-IKKβ (wt HA-IKKβ): inhibited

CCC(=C/[C@H](C)C/C=C/C(C)=C/[C@@H](C)C(=O)[C@@H](C)[C@H](O)[C@@H](C)C/C(C)=C/C(=O)O)/C=C/[C@@H]1OC(=O)C=C[C@@H]1C [leptomycin B]
biotinylation in the nuclear compartment (C10 cells; 5 ng/ml, about 12 hours): enhanced | nuclear sequestration of RelA (RelA (p65); 5 ng/ml, about 12 hours): enhanced
